Measurements reported in patent US8828993B2, “Psychotropic agents having glutamate NMDA activity” (Ramot At Tel-Aviv University Ltd., priority 2006, dated 2014).
Entries after “also recorded” stand apart in the source; their conditions may differ.

Columns and labels:
Assay type in all cases: in vivo
[1] = test system: MK-801-induced hyperactivity in mice; assay: MK-801-induced hyperactivity in open field
Description: MK-801-Induced Stereotype Behavior in Rats (in Open Field)—
MK-801 is an analogue of PCP which inhibits NMDA receptors and elicits hyperlocomotion and stereotypic behavior in rodents and is used as an animal model of schizophrenia (Stephen, et al., Topiramate antagonizes MK-801 in an animal model of schizophrenia, Eur. J. Pharmacol. 449, 2002, 121-5). For experimentation, naïve Balb/c mice were used. MK-801 (0.15 mg/kg i.p) was administered 40 minutes after Compound 1 (or any one of the other compounds of the invention) or a vehicle, and 20 minutes prior to placing the mouse in an open field.
Animals placed in the open field were followed for 60 minutes and their distance moved, velocity, duration of immobility, and number of rearing events were registered using the Noldus system.
As stated above, MK-801 inhibits NMDA receptors and elicits hyperlocomotion. Therefore, where an antagonism of the hyperactivity-induced by the MK-801 is observed upon administration of a compound of the invention, it is an indication as to the positive modulation of the NMDA activity. In other words, such a compound may be considered as useful in the treatment of schizophrenia.
The effect of Compound 6 on the distance moved in Balb/c mice exposed to MK-801 ([…]) i.p. and to Compound 6 (up to 12.5 mg/kg, i.p.) administered 1 hr prior to MK-801 was also tested.
As stated above, MK-801 (an NMDA receptor antagonist) is a widely accepted animal model for schizophrenia. The experiment was conducted with Balb/c male mice (Harlan Il), 6 per group. Compound 1 (50 mg/kg) was administered i.p. (1 hr before experimentation), to mice alone or combined with MK-801 (0.15 mg/kg, i.p.) administered 20 minutes prior to placing the mice individually in an open field for 60 minutes. The hyper-active behavior expressed by hyperlocomotion, velocity, strong mobility, number of rearing was evaluated using the Noldus system, each point represents the mean+/−6 determinations.

[2] = test system: mice; assay: Open field exploratory locomotor activity
Excerpt: Open Field Exploratory Locomotor Activity
The procedure consists of subjecting an animal, usually a rodent, to an unknown large environment from which escape is prevented by surrounding walls. The open field test is now one of the most popular procedures in animal psychology (Crawley, et al., Exploratory behavior models of anxiety in mice, Neurosci Biobehav Rev 9 (1985), pp. 37-44). The procedure involves forced confrontation of a rodent with the situation. The animal is placed in the center or close to the walls of the apparatus and the following behavioral items are recorded for a period ranging from 5 to 20 minutes: horizontal locomotion, and frequency of rearing or leaning. In such a situation, rodents spontaneously prefer the periphery of the apparatus to activity in the central parts of the open field. Increase in time spent in the central part as well as of the ratio central/total locomotion or decrease of the latency to enter the central part are indications of anxiolysis.
In a typical test, an individual mouse was placed in a novel environment of a square open field (50×50 cm), the floor of which had been divided into 3 areas, as shown below. The area within 10 cm of the chamber walls was termed the periphery. […] One hour after drug administration, the animal was placed in the same corner of the field. The animal behavior in the open field was recorded by videotaping for 20-60 minutes and analyzed subsequently digitally using the Noldus software for animal behavior. The measurements included velocity, distance moved, frequency of visits to the central area, number of rearing events.
The effect of Compound 1 on the behavior of mice in the open field and the dose-dependent effect following i.p administration were evaluated. Naïve male Mice (Balb/c, Harlan Israel) were used. The animals, divided 3 to 5 animals per group, were administered with Compound 1 (12.5, 25, 50, 75 and 100 mg/kg) 1 hr prior to placing each in an open field. Mice were monitored for 1 hr (every 5 minutes) using the Noldus system, and their distance moved, velocity, time of immobility and number of rearings was recorded.
(§1) The effect of Compound 6 on the behavior of mice in the open field was also examined. Naïve male mice (Balb/c, Harlan Israel) were used. Animals (6 per group) were administered with Compound 6 (12.5, 25 and 50 mg/kg, i.p.) 1 hr prior to placing each in the open field. Mice were followed for 1 hr (every 5 minutes) using the Noldus system, and their distance moved, velocity, time of immobility and number of rearings was recorded.
The effect of oral administration of Compound 1 in the open field was tested by orally administering to male ICR mice varying amounts of Compound 1 (5, 10 and 20 mg/kg) or vehicle. Animals were placed in the open field 1 hr after drug administration and horizontal and vertical behavior was recorded for 20 minutes.
as §1, with “The dose-dependent” for “The”, “3 administered i.p.” for “6 on the behavior of mice”, “tested.” for “examined.”, “Animals” for “Animals (6 per group)”, “3” for “6”, “i.p., 6 per group)” for “i.p.)”
Animals were administered orally with Compound 1 (5, 10 and 20 mg/kg) or with a vehicle. Animals were placed in the open field 1 hr after drug administration and animal track was registered for 20 minutes. The time spent in the center (zone 3) and the frequency to the center were indicators of anxiety.

[3] = test system: amphetamine-induced hyperactivity in mice; assay: Amphetamine-induced hyperactivity and stereotypic behavior
Excerpt: The amphetamine-induced hyperactivity and motility is one of the most popular animal models for schizophrenia (Pouzet B, et al., Effects of the 5-HT(7) receptor antagonist SB-258741 in animal models for schizophrenia. Pharmacol Biochem Behav April; 71(4):655-665, 2002 and Geyer, et al., Animal behavior models of the mechanisms underlying antipsychotic atypicalicity, Progress in Neuro-Psychopharmacol & Biological Psychiatry, 27, 1071-79, 2003). Amphetamines are known to augment dopaminergic and noradrenergic neurotransmission by inducing catecholamine release and preventing catecholamine reuptake
The experiment was conducted with ICR male mice placed in individual barrels. […] The locomotor activity, number of rearings and head movements was recorded every 15 minutes for 2 h.
As stated above, the amphetamine-induced hyperactivity and motility is one of the most popular animal models for schizophrenia. The experiment was conducted with ICR male mice placed in individual barrels. Compound 1 (20 mg/kg) was administered p.o to the mice 1 hr prior to i.p. administration of amphetamine (2. mg/kg). The hyper-active behavior expressed by the number of climbings and rearings and the stereotypic behavior expressed by the number of head movements was recorded every 15 minutes over a period of 1 h.
The effect of Compound 3 (12.5, 25 and 50 mg/kg, i.p.) on amphetamine-induced hyperactivity in Balb/c mice was also examined. Animals (6 per group) were injected with Compound 3 (12.5, 25 and 50 mg/kg) and 30 minutes later received amphetamine (2 mg/kg ip). After 30 minutes, animals were exposed to an open field test for a period of 20 minutes.

[4] = test system: rats pretreated with MK-801; assay: Morris Water Maze in rats pretreated with MK-801; details: rats, MK-801 alone 0.15 mg/kg i.p. on day 1
Description: (§2) The Morris Water Maze is a well known test aimed to assess spatial cognitive tasks (Anger, et al., Animal test systems to study behavioral dysfunctions of neurodegenerative disorders, Neurotoxicology, 12, 403-13 (1991)). The maze consists of a circular pool measuring 1.80 m in diameter 60 cm in height. The pool was filled with water (21±1° C.) to a depth of 30 cm. A circular hidden escape platform (10 cm in diameter) was placed just below the water surface. The test room contained several permanent extra maze cues such as the rat housing rack, laboratory table, posters on the walls, etc.
as §2, with “tasks.” for “tasks (Anger, et al., Animal test systems to study behavioral dysfunctions of neurodegenerative disorders, Neurotoxicology, 12, 403-13 (1991)).”
In the experiment rats were given Compound 1 orally on day 1 and the first test begun 90 minute later, six trials per day, for 3 consecutive days, to find the hidden platform (acquisition phase). The escape latency, i.e., the time required by the rat to find and climb onto the platform, was recorded for up to 120 sec. Each rat was allowed to remain on the platform for 30 sec, after which it was removed to its home cage.
A video camera was placed above the center of the pool for tracking the rat, and a video tracking system (Noldus) with online digital output directly fed data into a computer. Data were analyzed using EthoVision automated tracking system software (Noldus).
Compound 1 at both doses decreased the latency to the platform on day 3 of the experiment but not on days 1 and 2.
The relief of cognitive impairments was also shown in the use of Compound 6. […] Compound 6 at 10 mg/kg decreased the latency to the platform on days 2 and 3 of the experimentation.

[5] = Balb/c mice, 12.5, 25 and 50 mg/kg i.p.

COC(=O)C(N)COCN1CCN(C2=Nc3ccccc3Nc3sc(C)cc32)CC1 (stereo not shown) [Compound 3]
MK-801-induced hyperactivity ([1]; Balb/c mice, 7.5 mg/kg): slight effect
MK-801-induced hyperactivity ([1]; Balb/c mice, 25 mg/kg): normalization of activity
MK-801-induced hyperactivity ([1]; Balb/c mice, 50 mg/kg): sedation
MK-801-induced hyperactivity (distance moved) ([1]; Balb/c mice, 12.5, 25 and 50 mg/kg i.p., MK-801 0.15 mg/kg i.p.): dose dependent decrease
immobility (“not moving” total duration), MK-801 treated ([1]; Balb/c mice, high dose): appeared
frequency to the center of the field, MK-801 treated ([1]; Balb/c mice, low dose): tended to increase
time spent in the center, MK-801 treated ([1]; Balb/c mice, low dose): tended to increase
immobility (“not moving” total duration), MK-801 treated ([1]; Balb/c mice, small and intermediate doses (25 mg/kg)): not found
motility parameters ([2]; Balb/c mice, 50 mg/kg i.p.): marked decrease
duration of “not moving” periods [2, 5]: dose dependently increased
number of rearings vs. controls [2, 5]: decreased
motility (distance moved and velocity) ([2]; Balb/c mice, up to 25 mg/kg i.p.): mild decrease
distance moved, combined with amphetamine ([3]; Balb/c mice, 12.5 mg/kg i.p.): normalization
distance moved, combined with amphetamine ([3]; Balb/c mice, 12.5, 25 and 50 mg/kg i.p. at -60 minutes): dose-dependent decrease
immobility, combined with amphetamine ([3]; Balb/c mice, 12.5, 25 and 50 mg/kg i.p., amphetamine 2 mg/kg ip): dose-dependently increased
effect of amphetamine (hypermotility) ([3]; Balb/c mice, 12.5, 25 and 50 mg/kg i.p., amphetamine 2 mg/kg ip 30 minutes later, open field 20 minutes): dose-dependently antagonized
hyperactivity ensued by amphetamine ([3]; Balb/c mice, already at 12.5 mg/kg i.p., 12.5 mg/kg): effective; also recorded: antagonized
distance moved, combined with amphetamine ([3]; Balb/c mice, doses higher than 12.5 mg/kg i.p.): marked decrease

C[C@]12N[C@H](Cc3ccccc31)c1ccccc12 [MK-801, reference compound]
memory tasks (latency to the platform) compared to normal controls [4]: significant impairment
